Test results: patent US10653699B2, “Controlled-release tozadenant formulations” (BIOTIE THERAPIES, INC., priority 2015, dated 2020)

Legend:
[1] = Clinical study of immediate-release tozadenant: treatment-emergent adverse events, Cmax and Css (Table 18); format: in vivo, human; conditions: for Total AEs/subject / concentration at 14 day / Cmax: immediate-release formulation; for Total Number of AEs: immediate-release formulation (N = 6); for concentration at 14 day / Cmax: human, plasma; for Cmax: read-out: Cmax (ng/mL) at Day 14
Experimental: Advantages of controlled-release formulations compared to immediate-release formulations include: lower incidence of adverse events; improved tolerability; reduced frequency of dosing; and improved compliance due to reduced frequency of dosing.
An example of an efficacious dose of tozadenant is 120 mg of an immediate-release formulation administered twice a day (BID). […] Thus, a CR formulation could be designed to achieve an efficacious Css lower than the plasma levels (Cmax) that result in AEs. An efficacious CR formulation would preferably result in a Css in the range of 0.5-3.0 μg/mL.

[2] = Treatment-emergent adverse events and tozadenant plasma Cmax by dose in patients (Table 19); format: in vivo, human; conditions: for Cmax at 6 week / Cmax: human, oral; for Cmax at 6 week: maximum plasma concentration in group of 63-75 patients, time since last dose unknown; for Cmax: plasma, read-out: Cmax (ng/mL) at ~5 hr postdose at Day 1
Source text: Table 19 summarizes the dose response of AEs observed in patients taking tozadenant alongside the plasma Cmax. A clear trend of increasing AEs and discontinuation of therapy is seen with doses that result in higher tozadenant Cmax. A controlled-release formulation can be used to achieve the drug levels (Css) that are therapeutically effective while avoiding the high plasma Cmax and AEs associated with high doses of an IR formulation.

[3] = Physical characterization of tozadenant API; format: physicochemical
Source text: The active pharmaceutical ingredient (API) was very fine, with ˜60% fines. […] The observed loss upon drying indicated a low amount of water and volatile matter in API.

COc1ccc(N2CCOCC2)c2sc(NC(=O)N3CCC(C)(O)CC3)nc12 [tozadenant, 4-hydroxy-4-methyl-piperidine-1-carboxylic acid (4-methoxy-7-morpholin-4-yl-benzothiazol-2-yl)-amide]
Css ([1]; 120 mg of an immediate-release formulation administered twice a day (BID)): about 2.4 μg/mL
Total AEs/subject ([1]; 120 BID): 0.7
Total Number of AEs ([1]; 120 BID): 4
Total AEs/subject ([1]; 240 BID): 4.0
Total Number of AEs ([1]; 240 BID): 24
Total AEs/subject ([1]; 240 QD): 2.7
Total Number of AEs ([1]; 240 QD): 16
Total AEs/subject ([1]; 480 QD): 5.0
Total Number of AEs ([1]; 480 QD): 30
concentration at 14 day ([1]; 120 mg, 120 BID): 2360 ng/mL
Cmax ([1]; 120 mg, 120 BID): 2970 ng/mL
concentration at 14 day ([1]; 240 mg, 240 BID): 4810 ng/mL
Cmax ([1]; 240 mg, 240 BID): 6160 ng/mL
concentration at 14 day ([1]; 240 mg, 240 QD): 2080 ng/mL
Cmax ([1]; 240 mg, 240 QD): 3440 ng/mL
concentration at 14 day ([1]; 480 mg, 480 QD): 3500 ng/mL
Cmax ([1]; 480 mg, 480 QD): 5120 ng/mL
Patients discontinuing due to AEs, % ([2]; 60 mg BID): 8%
Patients with no AE, % ([2]; 60 mg BID): 28%
Patients with ≥ 1 AE related to study drug, % ([2]; 60 mg BID (N = 85)): 44%
Patients discontinuing due to AEs, % ([2]; 120 mg BID): 12%
Patients with no AE, % ([2]; 120 mg BID): 26%
Patients with ≥ 1 AE related to study drug, % ([2]; 120 mg BID (N = 82)): 55%
Patients discontinuing due to AEs, % ([2]; 180 mg BID): 12%
Patients with no AE, % ([2]; 180 mg BID): 21%
Patients with ≥ 1 AE related to study drug, % ([2]; 180 mg BID (N = 85)): 55%
Patients discontinuing due to AEs, % ([2]; 240 mg BID): 20%
Patients with no AE, % ([2]; 240 mg BID): 18%
Patients with ≥ 1 AE related to study drug, % ([2]; 240 mg BID (N = 84)): 63%
Cmax at 6 week ([2]; 60 mg BID): 2570 ng/mL
Cmax ([2]; 60 mg BID): 424 ng/mL
Cmax at 6 week ([2]; 120 mg BID): 3910 ng/mL
Cmax ([2]; 120 mg BID): 680 ng/mL
Cmax at 6 week ([2]; 180 mg BID): 5460 ng/mL
Cmax ([2]; 180 mg BID): 999 ng/mL
Cmax at 6 week ([2]; 240 mg BID): 6630 ng/mL
Cmax ([2]; 240 mg BID): 1150 ng/mL
Bulk density [3]: 0.1948 g/mL
Compressibility index [3]: 35.065
Fines Portion (# 60 pass portion) [3]: 60.00%
Granular Portion (# 60 Retain portion) [3]: 40.00%
Hausner ratio [3]: 1.5406
Tapped density [3]: 0.3000 g/mL
Particle size distribution (% Retention) ([3]; ASTM # 20 mesh (841μ)): 0.00%
Particle size distribution (% Retention) ([3]; ASTM # 40 mesh (420μ)): 7.00%
Particle size distribution (% Retention) ([3]; ASTM # 60 mesh (250μ)): 33.00%
Particle size distribution (% Retention) ([3]; ASTM # 80 mesh (177μ)): 18.00%
Particle size distribution (% Retention) ([3]; ASTM # 100 mesh (149μ)): 16.00%
Particle size distribution (% Retention) ([3]; ASTM # 200 mesh (75μ)): 21.00%
Particle size distribution (% Retention) ([3]; Pan): 5.00%
Loss on drying ([3]; at 105° C. for 5 minutes): 0.400 % w/w
